Read-outs that look alike come from different tables or passages of the source.
Experiments:
AR protein = target: T1, AR protein (Homo sapiens, UniProt P10275); assay: Western blotting analysis of AR protein levels in VCaP cells, band quantification, DC50/DC90; type: cell-based
T1 construct: endogenous in cells; host or cells: VCaP
T1 sequence (P10275 1-920): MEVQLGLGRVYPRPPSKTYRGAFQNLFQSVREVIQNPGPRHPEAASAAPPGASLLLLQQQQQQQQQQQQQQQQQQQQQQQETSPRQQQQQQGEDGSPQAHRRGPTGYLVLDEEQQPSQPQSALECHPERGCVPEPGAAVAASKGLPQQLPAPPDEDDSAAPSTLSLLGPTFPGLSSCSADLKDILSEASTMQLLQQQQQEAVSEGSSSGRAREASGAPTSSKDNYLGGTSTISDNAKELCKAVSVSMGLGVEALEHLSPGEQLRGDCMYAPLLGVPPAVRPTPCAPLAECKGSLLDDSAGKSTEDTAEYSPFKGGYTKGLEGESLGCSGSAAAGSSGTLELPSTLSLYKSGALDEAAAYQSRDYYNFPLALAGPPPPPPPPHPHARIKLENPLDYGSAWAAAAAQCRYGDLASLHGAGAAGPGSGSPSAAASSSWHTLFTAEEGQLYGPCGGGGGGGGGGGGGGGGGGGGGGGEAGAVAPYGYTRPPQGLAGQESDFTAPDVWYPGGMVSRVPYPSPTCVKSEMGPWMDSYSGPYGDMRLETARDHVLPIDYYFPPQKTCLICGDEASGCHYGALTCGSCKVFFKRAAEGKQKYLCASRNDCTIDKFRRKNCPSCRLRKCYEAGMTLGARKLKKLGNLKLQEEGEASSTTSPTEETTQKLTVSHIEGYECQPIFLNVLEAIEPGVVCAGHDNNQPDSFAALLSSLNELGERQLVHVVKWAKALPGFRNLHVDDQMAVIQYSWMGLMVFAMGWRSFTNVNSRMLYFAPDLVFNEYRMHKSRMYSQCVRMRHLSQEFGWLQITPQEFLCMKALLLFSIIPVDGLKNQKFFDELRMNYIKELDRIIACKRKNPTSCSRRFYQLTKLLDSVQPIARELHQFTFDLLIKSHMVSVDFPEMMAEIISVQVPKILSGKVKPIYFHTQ
Procedure, shortened: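 VCaP cells treated with compounds, lysed in RIPA and probed for AR by Western blot with GAPDH loading control. Band intensities normalised to GAPDH; DC50 from curve fit, DC90 calculated from DC50 and Hill slope via four-parameter equation.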

[1] = Mouse PK studies after oral and IV dosing; type: in vivo; conditions: for F: PO 3 mg/kg vs IV 1 mg/kg; for AUC(0-t) / clearance / half-life / Vd / Cmax / Tmax: in vivo; for clearance: read-out: IV Cl (converted); for Vd: read-out: IV VSS
Procedure: The pharmacokinetics of representative Compounds of the Disclosure were determined after oral and IV dosing at the concentrations indicated in mouse (Table 7). […] The vehicles used in these studies are either (i) 10% PEG400+90% PBS (adjusted to pH to 8.0 by 0.5 N NaOH); or (ii) 100% PEG200.

[2] = iv, 1 mg/kg, IV, dose 1 mg/kg, read-out: IV AUC(0 − t)
[3] = iv, 1 mg/kg, IV, dose 1 mg/kg, read-out: IV T1/2 (converted)
[4] = po, 3 mg/kg, PO, dose 3 mg/kg, read-out: PO AUC(0 − t)
[5] = po, 3 mg/kg, PO, dose 3 mg/kg, read-out: PO T1/2 (converted)
[6] = VCaP cells, Table 6; read-out: VCaP DC50

In the case of `C[C@H]1CC2(CCN(c3ccc(C(=O)N4CCN(C5CN(c6ccc7c(c6)C(=O)N(C6CCC(=O)NC6=O)C7=O)C5)CC4)cc3F)CC2)CN1c1ccc(C#N)c(Cl)c1` (stereo partly drawn) [Cpd. No. 510, 2-chloro-4-((3S)-8-(4-(4-(1-(2-(2,6-dioxopiperidin-3-yl)-1,3-dioxoisoindolin-5-yl)azetidin-3-yl)piperazine-1-carbonyl)-2-fluorophenyl)-3-methyl-2,8-diazaspiro[4.5]decan-2-yl)benzonitrile], the DC50 (AR protein; read-out: VCaP DC50; VCaP cells, Table 6) is reported as less than 1 nM, the F [1] is reported as 51% and the AUC(0-t) [1, 2] is reported as 4080 ng·h/mL. It also gave a clearance ([1]; iv, 1 mg/kg, IV, dose 1 mg/kg) of 3.33 mL/min/kg, a half-life [1, 3] of 8.3 h and a Vd ([1]; iv, 1 mg/kg, IV, dose 1 mg/kg) of 2.1 L/kg. It also gave a Cmax ([1]; po, 3 mg/kg) of 518 ng/mL, a Tmax ([1]; po, 3 mg/kg) of 2.7 h and an AUC(0-t) [1, 4] of 6270 ng·h/mL. For the same compound, the half-life [1, 5] was 7.2 h.

In the case of `C[C@H]1CC2(CCN(c3ccc(C(=O)N4CCN(CC5CN(c6ccc7c(c6)C(=O)N(C6CCC(=O)NC6=O)C7=O)C5)CC4)nn3)CC2)CN1c1ccc(C#N)c(Cl)c1` (stereo partly drawn) [Cpd. No. 484, 2-chloro-4-((3S)-8-(6-(4-((1-(2-(2,6-dioxopiperidin-3-yl)-1,3-dioxoisoindolin-5-yl)azetidin-3-yl)methyl)piperazine-1-carbonyl)pyridazin-3-yl)-3-methyl-2,8-diazaspiro[4.5]decan-2-yl)benzonitrile], the DC50 (AR protein; [6]) is reported as 1 to 10 nM, the F [1] is reported as 46% and the AUC(0-t) [1, 2] is reported as 7770 ng·h/mL. For the same compound, the clearance ([1]; iv, 1 mg/kg, IV, dose 1 mg/kg) was 2 mL/min/kg, the half-life [1, 3] was 6.1 h and the Vd ([1]; iv, 1 mg/kg, IV, dose 1 mg/kg) was 0.62 L/kg. It also gave a Cmax ([1]; po, 3 mg/kg) of 2380 ng/mL, a Tmax ([1]; po, 3 mg/kg) of 1.3 h and an AUC(0-t) [1, 4] of 10600 ng·h/mL. It also gave a half-life [1, 5] of 4.5 h.

Work on `C[C@H]1CC2(CCN(c3cnc(C(=O)N4CCN(CC5CN(c6cc7c(cc6F)C(=O)N(C6CCC(=O)NC6=O)C7=O)C5)CC4)cn3)CC2)CN1c1ccc(C#N)c(Cl)c1` (stereo partly drawn) [Cpd. No. 488, 2-chloro-4-((3S)-8-(5-(4-((1-(2-(2,6-dioxopiperidin-3-yl)-6-fluoro-1,3-dioxoisoindolin-5-yl)azetidin-3-yl)methyl)piperazine-1-carbonyl)pyrazin-2-yl)-3-methyl-2,8-diazaspiro[4.5]decan-2-yl)benzonitrile] yielded a DC50 (AR protein; [6]) of 1 to 10 nM, an F [1] of 31% and an AUC(0-t) [1, 2] of 233 ng·h/mL. It also gave a clearance ([1]; iv, 1 mg/kg, IV, dose 1 mg/kg) of 70.2 mL/min/kg, a half-life [1, 3] of 5 h and a Vd ([1]; iv, 1 mg/kg, IV, dose 1 mg/kg) of 7.75 L/kg. For the same compound, the Cmax ([1]; po, 3 mg/kg) was 99.6 ng/mL, the Tmax ([1]; po, 3 mg/kg) was 1 h and the AUC(0-t) [1, 4] was 213 ng·h/mL. For the same compound, the half-life [1, 5] was 3.1 h.
